Measured values as given in patent US20260216349A1, “STABILIZED BIOPOLYMER COMPOSITION, THEIR MANUFACTURE AND USE” (BASE SE, priority 2023, published 2026).

Details: pH 7.4
Protocol: A 10% (m/m) aqueous solution of the test substances (butronics as well as reference materials Kolliphor EL and HS15) is prepared in phosphate buffer pH 7.4. For each test substance and reference three 5 ml brown glass ampoules with screw caps are filled with 5 g of the prepared aqueous solution.
The respective API (as for example Fenofibrate/Itraconazole/Nilotinib) to be analyzed is then added (about 30 mg-500 mg per 5 g of 10% test substance solution, enough that the added powder doesn't dissolve anymore) in order to obtain a supersaturated solution.
After stirring for 72 h at room temperature, each sample is filtered through a 0.22 μm PVDF filter and the concentration of the respective API in the filtrate is quantified by HPLC.
The average of the 3 replicates per API is calculated and the obtained concentrations are put in relation to Kolliphor EL, which is set to 100%.

POE sorbitan monooleate [Polysorbate 80]
Solubilization of small molecules (mean value in %): 96%
